Consider 3 compounds from US20090192077A1, “North-2'deoxy -methanocarbathymidines as antiviral agents for treatment of kaposi's sarcoma-associated herpes virus” (priority 2005, published 2009).

One data set concerns the target HSV-1 TK (Human herpesvirus 1, UniProt P0DTH5). The settings on record: cited from earlier work.
A further data set concerns the target EBV TK (Epstein-Barr virus, UniProt P03177). The settings on record: cited from earlier work.
Another data set deals with human cellular TK. The conditions noted are these: cited from earlier work.
In a further data set the test system is BCBL-1 cells. Put plainly: Intracellular phosphorylation in KSHV-infected BCBL-1 cells (HPLC of methanolic extracts). How it is done: Exponentially growing BCBL-1 cells or CEM-SS cells (a human T cell line) were washed three times with PBS and cultured in serum free AIM-V w/BSA medium (Invitrogen) at 2×10^5 cells/mL in the absence (unstimulated control) or presence of 20 ng/mL PMA. After 24 hours, unstimulated and PMA-stimulated cells were harvested, washed once with PBS and resuspended in serum free AIM-V […] radiolabeled compound [^3H]-(N)-MCT, [^3H]-CDV or [^3H]-GCV. Control cultures containing the same concentration of the test compounds but without the radiolabeled formulations were simultaneously set up in an identical manner to assess the cell counts and to evaluate their anti-KSHV activity. In selected experiments, 5′-ET was added at 10˜50 μM to investigate the changes in the anti-KSHV activity and intracellular phosphorylation profiles of the test compounds. The cells were harvested after 24 or 72 hours of incubation.
Upon harvest, the cells were centrifuged at 1,500 rpm for 10 min and washed once with cold PBS. The cell pellets were resuspended in 250 μL of 60% methanol and heated at 95° C. for 3 min, followed by a microcentrifugation at 12,000 g for 10 min at 4° C. The clarified supernatant fractions were evaporated under nitrogen, redissolved in 250 μL of water and subjected to HPLC separation of the phosphorylated metabolites as described in detail elsewhere (Noy, R. et al. 2002 Mol Cancer Ther 1:585-93; Zalah, L. et al. 2002 Antiviral Res 55:63-75). Fractions containing radiolabeled nucleotides were quantitated based on the known specific activity of the parent tritiated nucleoside (Noy, R. et al. 2002 Mol Cancer Ther 1:585-93; Zalah, L. et al. 2002 Antiviral Res 55:63-75).

The next data set has as its system CEM-SS cells. Put plainly: Intracellular phosphorylation in uninfected CEM-SS cells. The conditions noted are these: 10 μM N-MCT, with or without PMA-stimulation. How it is done: Exponentially growing BCBL-1 cells or CEM-SS cells (a human T cell line) were washed three times with PBS and cultured in serum free AIM-V w/BSA medium (Invitrogen) at 2×10^5 cells/mL in the absence (unstimulated control) or presence of 20 ng/mL PMA. After 24 hours, unstimulated and PMA-stimulated cells were harvested, washed once with PBS and resuspended in serum free AIM-V w/BSA medium at 2×10^5 cells/mL without PMA in the absence or presence of 10 μM N-MCT, CDV or GCV and 5 μCi/mL of the corresponding radiolabeled compound [^3H]-(N)-MCT, [^3H]-CDV or [^3H]-GCV. Control cultures containing the same concentration of the test compounds but without the radiolabeled formulations were simultaneously set up in an identical manner to assess the cell counts and to evaluate their anti-KSHV activity. In selected experiments, 5′-ET was added at 10˜50 μM to investigate the changes in the anti-KSHV activity and intracellular phosphorylation profiles of the test compounds. The cells were harvested after 24 or 72 hours of incubation.
Upon harvest, the cells were centrifuged at 1,500 rpm for 10 min and washed once with cold PBS. […] Fractions containing radiolabeled nucleotides were quantitated based on the known specific activity of the parent tritiated nucleoside (Noy, R. et al. 2002 Mol Cancer Ther 1:585-93; Zalah, L. et al. 2002 Antiviral Res 55:63-75).

Data set [1] deals with T1, recombinant KSHV DNA polymerase (rPOL) and polymerase processivity factor (rPPF) (Human herpesvirus 8 type P, UniProt Q2HRD0).
T1 sequence (Q2HRD0 1-1012): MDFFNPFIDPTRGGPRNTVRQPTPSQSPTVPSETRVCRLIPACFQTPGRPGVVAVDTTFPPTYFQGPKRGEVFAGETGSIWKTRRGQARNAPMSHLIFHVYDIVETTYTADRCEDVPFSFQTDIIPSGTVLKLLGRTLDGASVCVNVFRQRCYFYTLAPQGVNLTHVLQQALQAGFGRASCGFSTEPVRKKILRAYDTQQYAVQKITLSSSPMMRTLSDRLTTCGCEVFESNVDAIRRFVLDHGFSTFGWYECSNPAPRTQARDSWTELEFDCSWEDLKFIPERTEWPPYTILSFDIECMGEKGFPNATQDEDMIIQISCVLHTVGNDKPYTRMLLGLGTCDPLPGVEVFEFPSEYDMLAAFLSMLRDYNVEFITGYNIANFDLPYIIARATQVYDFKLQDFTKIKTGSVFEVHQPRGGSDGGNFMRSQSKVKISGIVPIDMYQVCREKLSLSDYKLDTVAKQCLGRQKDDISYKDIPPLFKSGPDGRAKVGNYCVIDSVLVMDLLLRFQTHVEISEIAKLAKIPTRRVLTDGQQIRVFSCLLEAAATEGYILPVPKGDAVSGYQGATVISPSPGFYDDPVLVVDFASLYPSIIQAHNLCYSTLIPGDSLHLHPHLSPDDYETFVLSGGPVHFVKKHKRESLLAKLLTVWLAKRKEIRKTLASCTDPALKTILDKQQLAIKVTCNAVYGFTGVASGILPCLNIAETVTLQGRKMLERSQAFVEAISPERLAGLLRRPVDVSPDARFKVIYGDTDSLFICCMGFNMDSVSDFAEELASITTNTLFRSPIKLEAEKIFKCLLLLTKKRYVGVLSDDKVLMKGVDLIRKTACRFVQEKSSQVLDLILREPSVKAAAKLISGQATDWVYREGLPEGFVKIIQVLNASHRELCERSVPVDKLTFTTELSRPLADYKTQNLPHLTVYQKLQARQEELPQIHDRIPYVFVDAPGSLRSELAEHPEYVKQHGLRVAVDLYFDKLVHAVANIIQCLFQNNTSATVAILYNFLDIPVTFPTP
T1 sequence (F5HID2 1-396 partner): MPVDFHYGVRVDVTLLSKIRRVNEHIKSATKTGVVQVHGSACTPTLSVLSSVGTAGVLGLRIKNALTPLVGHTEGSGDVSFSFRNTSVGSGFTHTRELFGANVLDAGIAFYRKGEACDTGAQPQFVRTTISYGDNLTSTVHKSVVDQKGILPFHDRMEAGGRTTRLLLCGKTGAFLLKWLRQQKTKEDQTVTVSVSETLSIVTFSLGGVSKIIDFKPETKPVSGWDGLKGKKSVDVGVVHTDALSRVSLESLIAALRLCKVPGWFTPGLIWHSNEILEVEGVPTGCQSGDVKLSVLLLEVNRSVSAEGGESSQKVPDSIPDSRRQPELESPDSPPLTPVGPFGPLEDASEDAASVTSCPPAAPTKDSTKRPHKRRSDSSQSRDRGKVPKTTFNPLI
The settings on record: read-out: IC50 (μM) (mean ± SD), KSHV rPOL/rPPF-mediated DNA synthesis; 37° C., 60 min. The protocol: KSHV rPOL and rPPF were expressed and purified from the recombinant baculovirus-vector infected Sf9 cells (Dorjsuren, D. et al. 2003 Protein Expr Purif 29:42-50). […] The amounts of newly synthesized DNA, which incorporated DIG-dUTP, were determined by the DIG detection kit (Roche Applied Science) according to the manufacturer's instructions.

Chain of EBV TK (P03177 whole entry): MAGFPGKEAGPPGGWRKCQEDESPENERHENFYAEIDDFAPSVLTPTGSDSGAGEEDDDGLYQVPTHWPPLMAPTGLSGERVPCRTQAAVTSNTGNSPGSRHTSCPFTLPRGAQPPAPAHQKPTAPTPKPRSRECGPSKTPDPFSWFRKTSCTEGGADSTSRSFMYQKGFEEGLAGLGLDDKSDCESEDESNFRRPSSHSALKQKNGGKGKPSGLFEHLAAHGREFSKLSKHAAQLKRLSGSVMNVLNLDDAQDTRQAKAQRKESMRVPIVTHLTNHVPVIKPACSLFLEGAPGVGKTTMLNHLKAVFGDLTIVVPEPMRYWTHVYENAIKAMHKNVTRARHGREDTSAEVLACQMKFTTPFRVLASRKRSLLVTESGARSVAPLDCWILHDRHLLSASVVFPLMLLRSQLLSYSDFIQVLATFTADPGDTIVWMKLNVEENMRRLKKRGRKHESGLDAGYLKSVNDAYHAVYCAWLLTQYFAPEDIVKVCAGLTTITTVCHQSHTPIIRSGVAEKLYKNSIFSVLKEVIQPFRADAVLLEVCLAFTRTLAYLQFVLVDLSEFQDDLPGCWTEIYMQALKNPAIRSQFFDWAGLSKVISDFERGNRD
Chain of HSV-1 TK (P0DTH5 whole entry): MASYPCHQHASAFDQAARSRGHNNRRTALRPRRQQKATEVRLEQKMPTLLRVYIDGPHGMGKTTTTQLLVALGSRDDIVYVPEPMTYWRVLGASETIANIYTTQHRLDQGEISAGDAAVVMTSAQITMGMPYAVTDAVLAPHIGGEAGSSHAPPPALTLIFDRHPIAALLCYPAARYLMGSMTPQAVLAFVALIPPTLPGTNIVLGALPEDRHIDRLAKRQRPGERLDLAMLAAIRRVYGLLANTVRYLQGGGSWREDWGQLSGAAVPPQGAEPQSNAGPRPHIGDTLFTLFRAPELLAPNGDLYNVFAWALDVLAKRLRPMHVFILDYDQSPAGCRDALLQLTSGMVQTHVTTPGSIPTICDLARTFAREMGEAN

On to `C#CC(O)[C@H]1O[C@@H](n2cc(C)c(=O)[nH]c2=O)C[C@@H]1O` (stereo partly shown) [5′-ET, 5′-ethynylthymidine], for which the “inhibitory activity against HSV-1 TK” value at HSV-1 TK is given as “strong inhibitory activity”. Further, the “inhibitory activity against EBV TK” value at EBV TK is “strong inhibitory activity”. The “inhibitory activity against human cellular TK” value in the data set with human cellular TK was “not against human cellular TK”.

`Cc1cn([C@H]2C[C@H](O)[C@]3(COP(=O)(O)OP(=O)(O)OP(=O)(O)O)C[C@H]23)c(=O)[nH]c1=O` [N-MCT-TP, North-methanocarbathymidine triphosphate]: in the data set on BCBL-1 cells (10 μM of each compound, up to 72 hours, especially PMA-stimulated BCBL-1), the “intracellular level compared with CDV-DP and GCV-TP” value was “significantly higher”. Besides, the “level of phosphorylated metabolite in the presence of 50 μM 5'-ET” value in the data set on BCBL-1 cells (PMA-induced BCBL-1, 1, 3 or 10 μM N-MCT) was “substantially decreased”. In the data set with CEM-SS cells, the “accumulation of phosphorylated metabolite in uninfected cells” value is reported as “no appreciable accumulations”.

Turning to ganciclovir triphosphate [GCV-TP], in data set [1], the IC50 came to 24.6 ± 5.6 µM.
